Measurements: PubChem BioAssay AID624285 (Broad Institute, 2012)
“And” between values parts separate entries of the source, which are not always exact repeats. Equal values may be shown once. The source made the active and inactive calls.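 Rule for the calls: active = signal-decreasing dose-response curve whose fitted half-maximal concentration is at or below twice the highest valid tested dose; inconclusive = flat fit at 30 to 70% signal loss, or poor fit; inactive = the rest.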

Test: cell viability loss after compound exposure – 24 h, luminescence, cherry-picked samples, cytotoxicity control for PDI inhibitor project, dose response (AID 624285)
Details: NIH3T3/HeLa viability, CellTiter-Glo ATP luminescence, 24 h

SMILES | activity change, negative = cytotoxicity (at 35 µM (top of the series)) | activity change, negative = cytotoxicity (at 30 µM (top of the series))
CCN1C(=O)C2C(c3ccccc3F)NC(Cc3ccc(O)cc3)(C(=O)OC)C2C1=O (configuration not stated) | -13.9% (inactive) | –
CC1(C(=O)Nc2ccc3c(c2)OCCO3)CCN1C(=O)C1(c2ccc(Cl)cc2)CC1 (configuration not stated) | -11.6% (inactive) | –
CCOC(=O)c1oc2cccc(O)c2c1CN(Cc1ccccc1)C(C)=O | -17.2% (inactive) | –
CCOC(C(=O)OCCCN(CC)CC)(c1ccccc1)c1ccccc1 | -17.8% (inactive) | –
C[C@H](CO)N1C[C@H](C)[C@H](CN(C)S(=O)(=O)c2ccc(F)cc2)Oc2ccc(NC(=O)Cc3cn(C)c4ccccc34)cc2C1=O | -6.42% (inactive) | –
Cc1c(-n2cc(C(=O)c3ccccc3O)cc(C#N)c2=O)c(=O)n(-c2ccccc2)n1C | -5.22% (inactive) | –
O=C1C[C@@H](c2ccc(O[C@@H]3O[C@H](CO)[C@@H](O)[C@H](O)[C@H]3O)cc2)Oc2cc(O)ccc21 | -5.71% (inactive) | –
COc1ccc(CCNC(=O)c2cc(S(=O)(=O)N(C)C)ccc2N2CCCC2)cc1 | -14.6% (inactive) | –
C=CCn1c(SCC(=O)Nc2ccc(N(C)C)cc2)nnc1-c1cccc(C)c1 | -10.1% (inactive) | –
CCCNC(=O)c1cccc(COc2ccccc2OC)c1 | -6.42% (inactive) | –
COC(=O)c1cccc(CSc2nnc(C)s2)c1 | -12.9% (inactive) | –
O=C1CN(c2nc3ccccc3n3cnnc23)CC(=O)N1CCc1ccccc1 | -8.64% (inactive) | –
O=C1NC(Cc2ccc(O)cc2)c2nc3cc(Cl)ccc3c(=O)n2-c2ncccc21 (configuration not stated) | -16.3% (inactive) | –
CCCCNC(=O)Nc1ccon1 | -6.29% (inactive) | –
C[C@H](CO)N1C[C@H](C)[C@@H](CN(C)S(=O)(=O)c2ccc(F)cc2)Oc2ccc(NC(=O)Cc3ccccc3)cc2C1=O | -14.6% (inactive) | –
C[C@H](CO)N1C[C@H](C)[C@@H](CN(C)S(=O)(=O)c2ccccc2)Oc2ccc(NC(=O)Cc3cn(C)c4ccccc34)cc2C1=O | -1.88% (inactive) | –
CC(NCC(O)COCc1ccc(Cl)cc1)c1ccccc1 (configuration not stated) | -15.3% (inactive) | –
O=C(NC1CCCCC1)C1CCN(S(=O)(=O)c2cccs2)CC1 | -7.67% (inactive) | –
C[C@@H]1CN([C@@H](C)CO)C(=O)c2cccc(NS(C)(=O)=O)c2O[C@H]1CN(C)Cc1ccc(Oc2ccccc2)cc1 | -11.5% (inactive) and -6.47% (inactive) | –
COc1cccc(/C=N/NC(=O)CNC(=O)c2ccc3c(c2)OCCO3)c1O | -12.5% (inactive) | –
COc1cccc(NC(=O)CN(C)C(=O)/C=C/c2cc(OC)ccc2OC)c1 | -4.31% (inactive) | –
Cc1ccc2nc(N3CCN(Cc4nnnn4C4CCCC4)CC3)c(C#N)cc2c1 | -9.95% (inactive) | –
COc1cccc(-n2ccnc2SCC(=O)Nc2cc(OC)ccc2OC)c1 | -15.9% (inactive) | –
COc1cc(-c2oc3cc(O)cc(O)c3c(=O)c2O[C@@H]2O[C@H](COC3O[C@@H](C)[C@H](O)[C@@H](O)[C@H]3O)[C@@H](O)[C@H](O)[C@H]2O)ccc1O (some centres not stated) | -2.55% (inactive) | –
Cc1c(-n2cc(C(=O)c3cc(Br)ccc3O)cc(C#N)c2=O)c(=O)n(-c2ccccc2)n1C | -12.8% (inactive) | –
CC(=O)C1=C(O)C(=O)N(CCc2c[nH]c3ccccc23)C1c1cccc(O)c1 (configuration not stated) | -10.4% (inactive) | –

SMILES | activity change, negative = cytotoxicity (at 35 µM (top of the series)) | activity change, negative = cytotoxicity (at 30 µM (top of the series))
O=C(CCc1ccc(O)cc1)NN=Cc1cc(Br)ccc1O | -12.9% (inactive) | –
CCOC(=O)c1c(CN2CCN(CCO)CC2)n(C)c2cc(Br)c(OC)cc12 | -17.2% (inactive) | –
CCOC(=O)c1c(CN2CCN(Cc3ccccc3)CC2)n(C)c2cc(Br)c(OC)cc12 | -17.4% (inactive) | –
CCn1c(SCC(=O)NC2CC2)nnc1-c1ccccc1 | -6.27% (inactive) | –
CCN(CC(=O)Nc1ccc2c(c1)OCCO2)C(=O)CC1CCCC1 | -11.8% (inactive) | –
CC(=O)NC(Cc1c[nH]c2ccccc12)C(=O)OCC(=O)N1CCN(S(=O)(=O)c2ccc(Cl)cc2)CC1 (configuration not stated) | -10.5% (inactive) | –
O=C(NCc1ccncc1)Nc1cc(Cl)ccc1Cl | -6.87% (inactive) | –
CC1CCc2sc(C(=O)N/N=C/C3CCCCC3)cc2C1 (configuration not stated) | -8.35% (inactive) | –
CCN1CC2(COC(=O)c3ccccc3N)CCC(OC)C34C5CC6C(OC)CC(O)(C5C6OC)C(O)(C(OC)C23)C14 (configuration not stated) | -11.8% (inactive) | –
O=C(NN1CC(C(=O)OCc2ccccc2F)CC1=O)c1ccccc1 (configuration not stated) | -2.89% (inactive) | –
O=S(=O)(c1cc(F)ccc1F)N1CCN(c2ncccn2)CC1 | -15.2% (inactive) | –
CN1CCN(C(=O)CSc2nnc(COc3ccc(Cl)cc3)o2)CC1 | -3.96% (inactive) | –
COc1cc(C(C)=O)ccc1OCC(=O)NCCCn1nc(C)cc1C | -1.82% (inactive) | –
O=C1CCC(=O)N1CCc1c[nH]c2ccccc12 | -6.09% (inactive) | –
CC(=O)C1=C(O)C(=O)N(CCc2c[nH]c3ccccc23)C1c1ccc(O)cc1 (configuration not stated) | -8.38% (inactive) | –
O=C(NCc1ccccn1)Nc1cccc(Cl)c1 | -8.23% (inactive) | –
CCCc1cc(=O)[nH]c(SCCOc2ccc(OCC)cc2)n1 | -5.03% (inactive) | –
O=C(/C=C/c1ccc(NC(=O)c2ccccc2-c2ccccc2C(=O)O)cc1)c1ccccc1 | -8.34% (inactive) | –
COc1ccc(N(Cc2cc3cc(OC)ccc3[nH]c2=O)C(=O)C2CCCO2)cc1 (configuration not stated) | -10.5% (inactive) | –
O=C(c1ccc(NS(=O)(=O)c2ccccc2)cc1)N1CCOCC1 | -8.07% (inactive) | –
CCS(=O)(=O)c1ccc2oc(SCC(=O)NC(C)C3CC4CCC3C4)nc2c1 (configuration not stated) | -13.9% (inactive) | –
COc1ccc(CN(C)C[C@@H]2Oc3ccc(NC(=O)Nc4ccccc4)cc3CC(=O)N([C@H](C)CO)C[C@@H]2C)cc1 | – | -5.13% (inactive)
CC(=O)c1ccc(NC(=O)c2cc(Cl)nc3ccccc23)cc1 | -8.36% (inactive) | –
Cn1nnnc1SCC(=O)Nc1cc(C(F)(F)F)ccc1N1CCOCC1 | -9.83% (inactive) | –
CCOc1ccccc1CN1CCNC(=O)C1CC(=O)NCc1nccn1CC (configuration not stated) | -14.3% (inactive) | –
Cc1noc(C)c1S(=O)(=O)Nc1ccc2c(c1)CC(=O)N([C@H](C)CO)C[C@H](C)[C@@H](CN(C)S(=O)(=O)c1ccc(F)cc1)O2 | 4.98% (inactive) | –

SMILES | activity change, negative = cytotoxicity (at 35 µM (top of the series)) | activity change, negative = cytotoxicity (at 30 µM (top of the series))
NC(=O)c1nsc(C(=O)N(CC(=O)NCc2ccc(F)cc2)Cc2ccco2)c1N | -24.6% (inactive) | –
CC[C@]12c3[nH]c4cc(-c5ccco5)ccc4c3CCN1C(=O)[C@@H](CC(=O)NCCCOC)C[C@@H]2C(=O)N1CCN(C(=O)c2ccco2)CC1 | -9.72% (inactive) | –
N#Cc1c(NCCCO)nc(-c2ccco2)c2c1CCCC2 | -19.8% (inactive) | –
CCC1Nc2ncnc(N3CCCCC3)c2N(Cc2ccc(C)cc2)C1=O (configuration not stated) | -16.7% (inactive) | –
O=c1c(O[C@@H]2O[C@H](CO)[C@@H](O)[C@H](O)[C@H]2O)c(-c2ccc(O)cc2)oc2cc(O)cc(O)c12 | -2.51% (inactive) | –
CCCCNC(=O)CCn1c(=O)c2ccccc2n(CC(=O)Nc2ccccc2OCC)c1=O | -9.28% (inactive) | –
CCCCN(C(=O)C1=CC=CN2CCS(=O)(=O)N=C12)c1ccccc1 | -2.89% (inactive) | –
C[C@@H]1CN([C@@H](C)CO)C(=O)c2cccc(NS(C)(=O)=O)c2O[C@@H]1CN(C)Cc1ccc(Oc2ccccc2)cc1 | -5.95% (inactive) | –
Cn1cc(Cl)c(C(=O)OCC(=O)Nc2ccccc2)n1 | -7.99% (inactive) | –
O=S(=O)(c1ccccc1)N1N=C(c2ccc(O)cc2)CC1c1ccco1 (configuration not stated) | -18% (inactive) | –
CC1CCCN(c2cc3c(cc2[N+](=O)[O-])C(=O)N(c2ccccc2)C3=O)C1 (configuration not stated) | 0.75% (inactive) | –
C[C@@H]1CN([C@@H](C)CO)C(=O)c2cc(NC(=O)Cc3cn(C)c4ccccc34)ccc2O[C@H]1CN(C)S(=O)(=O)c1ccc(F)cc1 | 3.15% (inactive) | –
Cc1ccc(-c2cc(C(=O)NNC(=O)c3csc(N4CCOCC4)n3)c3ccccc3n2)cc1 | -13.2% (inactive) | –
O=C(NC(=S)Nc1cccc(NC(=O)c2ccccc2)c1)c1cccc([N+](=O)[O-])c1 | -10.7% (inactive) | –
Cc1nc(C(=O)Nc2cccc(Cl)c2Cl)nn1-c1cc(OC(C)C)c(Cl)cc1Cl | -11.1% (inactive) | –
Cn1nccc1C(=O)Nc1ccc(S(=O)(=O)N2CCCC2)cc1 | -14.9% (inactive) | –
CC(=O)NC1(c2nnnn2CCOC(=O)Nc2ccc(Cl)cc2)CCCCC1 | 5.78% (inactive) | –
O=C(NCc1cccs1)C1CC(c2ccc(F)cc2)=NO1 (configuration not stated) | -16.4% (inactive) | –
CN(C1=NC(=O)C(CC(=O)Nc2ccc(Br)cc2)S1)c1ccc(O)cc1 (configuration not stated) | -8.95% (inactive) | –
Cc1cccc(C)c1NC(=O)CN1CCNCC1 | -9.95% (inactive) | –
O=C(O)C1C(c2ccccc2)C(C(=O)Oc2ccc(O)cc2)C1c1ccccc1 (configuration not stated) | -8.75% (inactive) | –
Cc1nn(CC(=O)NCC2CCCO2)c(C)c1[N+](=O)[O-] (configuration not stated) | -7.91% (inactive) | –
C[C@H](CO)N1C[C@H](C)[C@H](CN(C)Cc2ccccc2)Oc2ccc(NC(=O)Nc3ccccc3)cc2CC1=O | -11.2% (inactive) | –
CCOC(=O)CN(c1ccccc1)S(=O)(=O)c1ccc(F)cc1 | -10.3% (inactive) | –
Cc1cc(NC(=O)COC(=O)C2CC(=O)N(c3ccccc3)C2)no1 (configuration not stated) | -2.55% (inactive) | –
